Data: patent EP2311435A1, “Pharmaceutical composition comprising poorly soluble active ingredient and hyperbranched polymer” (LEK Pharmaceuticals d.d., priority 2009, dated 2011)
Values after ≈ are worked out from the molar mass of the structure shown.

How the values were obtained:
physchem [1] = settings: 37 °C, pH 7, aqueous buffer, thermodynamic from solid
Description: Solubility as meant herein is measured using USP apparatus 2 (U.S. Pharmacopoeia 32-NF27) with agitation at 75 RPM in the dissolution medium of a phosphate buffer maintained at pH 6.8 and 37° C. Such low solubility makes preparing a useful pharmaceutical composition of acceptable size and efficacy especially difficult.
In a preferred embodiment, this is irrespective of the pharmacological effect it might have or ailment it is used to prevent or treat.
The pharmaceutical compositions, powders or granulates according to the invention comprise the hyperbranched polymer/API in specific weight ratios.

[2] = pH 6.8
physchem [3] = settings: pH 6.8, aqueous buffer
[4] = In vitro dissolution of glimepiride, USP Apparatus II (paddle), phosphate buffer pH 6.8; format: physicochemical; settings: mixed with hyperbranched polymer at the ratio of the invention, 37 °C, figures 3 and 4
Description: Approximately 50 % of the active ingredient (4 mg) is dissolved after 60 minutes of testing at following conditions: 37 °C in the USP Dissolution Tester, Apparatus II (Paddle method) using 900 ml of phosphate buffer (pH 6.8) as the dissolution medium and at a rotation rate of 75 rpm.
Dissolution of glimepiride was assessed at 37 °C by the USP Dissolution Tester, Apparatus II (Paddle method) at a rotation rate of 75 rpm using 900 ml of phosphate buffer (pH 6.8) as dissolution medium. The tested samples were added directly to the buffer in the correct amount to achieve a final concentration of 4,4 µg / mL glimepiride (equals therapeutic dose dissolved in 900 mL). Aliquots, each of 2 ml, from the dissolution medium were withdrawn at time intervals of 5, 15, 30, 60 minutes. The samples were withdrawn through syringe and filtered through Millipore filter and analyzed for glimepiride content using HPLC method.
The amount of dissolved glimepiride was estimated by reversed-phase HPLC (Waters Alliance) in a binary mode, with a photodiode array detector and a communication bus module. […]

[5] = In vitro dissolution of indapamide, USP Apparatus II (paddle), phosphate buffer pH 6.8; format: physicochemical; settings: with polyesteramide hyperbranched polymers, figure 5
Description: Dissolution of indapamide was assessed at 37 °C by the USP Dissolution Tester, Apparatus II (Paddle method), using 900 ml of phosphate buffer (pH 6.8) as the dissolution medium and at a rotation rate of 75 rpm. The tested samples were added directly to buffer in an amount in order to achieve a final concentration of 15 µg / mL indapamide. Aliquots, each of 2 ml, from the dissolution medium were withdrawn at time intervals of 5, 15, 30, 60 minutes. The samples were withdrawn through syringe and filtered through Millipore filter in order to separate the undissolved sample and analyzed for indapamide using UV spectrofotometry at 287 nm.

[6] = In vitro dissolution of pimobendan, USP Apparatus II (paddle), phosphate buffer pH 6.8; format: physicochemical; settings: admixed with Hybrane S1200, 2% and 5% of active ingredient
Description: The samples of pimobendan were prepared as in examples 6 to 13. Dissolution of pimobendan was assessed at 37 °C by the USP Dissolution Tester, Apparatus II (Paddle method) at a rotation rate of 75 rpm, using 900 ml of phosphate buffer (pH 6.8) as the dissolution medium. The tested samples were added directly to the buffer in the correct amount to achieve a final concentration of 5.5 µg / mL pimobendan (equals therapeutic dose dissolved in 900 mL). Aliquots, each of 2 ml, from the dissolution medium were withdrawn at time intervals of 5, 15, 30, 60 minutes. The samples were withdrawn through syringe and filtered through Millipore filter in order to separate the undissolved sample and analyzed for pimobendan using HPLC method.

[7] = Solubility in the presence of Hybrane S1200

| solubility (physchem [1]) | Increase [2] | solubility (physchem [3]; [7]) | solubility (physchem [3]; Solubility without polymer) | solubility of glimepiride [4] | solubility of the indapamide [5] | solubility of the active ingredient [6] | SMILES |
| --- | --- | --- | --- | --- | --- | --- | --- |
| 3 µg/mL (≈ 8.18 µM) | 100 fold | 3 µg/mL | 0.03 µg/mL (≈ 0.0818 µM) | – | – | – | O=C1C(O)=C([C@H]2CC[C@H](c3ccc(Cl)cc3)CC2)C(=O)c2ccccc21 [atovaquone] |
| 60 µg/mL (≈ 121 µM) | – | – | – | – | – | – | COc1ccc(Cl)cc1C(=O)NCCc1ccc(S(=O)(=O)NC(=O)NC2CCCCC2)cc1 [glibenclamide] |
| 50 µg/mL (≈ 155 µM) | – | – | – | – | – | – | Cc1ccc(S(=O)(=O)NC(=O)NN2CC3CCCC3C2)cc1 (stereo not shown) [gliclazide] |
| 1 µg/mL (≈ 2.04 µM) | 10 fold | 10 µg/mL | 1 µg/mL (≈ 2.04 µM) | significantly increased | – | – | CCC1=C(C)CN(C(=O)NCCc2ccc(S(=O)(=O)NC(=O)N[C@H]3CC[C@H](C)CC3)cc2)C1=O [glimepiride] |
| 700 µg/mL (≈ 1910 µM) | 140 fold | 700 µg/mL | 5 µg/mL (≈ 13.7 µM) | – | remarkably enhance | – | CC1Cc2ccccc2N1NC(=O)c1ccc(Cl)c(S(N)(=O)=O)c1 (stereo not shown) [indapamide] |
| 210 µg/mL (≈ 628 µM) | 50 fold | 210 µg/mL | 4 µg/mL (≈ 12 µM) | – | – | significantly increases | COc1ccc(-c2nc3ccc(C4=NNC(=O)CC4C)cc3[nH]2)cc1 (stereo not shown) [pimobendan] |
| 110 µg/mL (≈ 282 µM) | 55 fold | 110 µg/mL | 2 µg/mL (≈ 5.14 µM) | – | – | – | CN1CC(=O)N2[C@H](c3ccc4c(c3)OCO4)c3[nH]c4ccccc4c3C[C@@H]2C1=O [tadalafil] |
